Laboratory results: ChEMBL document CHEMBL1201862, “PubChem BioAssay data set” (2004)
Activity calls are given as the source filed them. For most assays here, no stated cut-off is given here; in the data, actives have a measured EC50 and inactives only a lower limit.

Key:
[1] = target: T1, Carboxy-terminal domain RNA polymerase II polypeptide A small phosphatase 1 (Homo sapiens, UniProt Q9GZU7); experiment: CTDSP1 inhibitors, concentration-response, biochemical, absorbance readout, ultra-high-throughput screen actives (AID 540297); format: functional
T1 sequence (Q9GZU7 whole entry): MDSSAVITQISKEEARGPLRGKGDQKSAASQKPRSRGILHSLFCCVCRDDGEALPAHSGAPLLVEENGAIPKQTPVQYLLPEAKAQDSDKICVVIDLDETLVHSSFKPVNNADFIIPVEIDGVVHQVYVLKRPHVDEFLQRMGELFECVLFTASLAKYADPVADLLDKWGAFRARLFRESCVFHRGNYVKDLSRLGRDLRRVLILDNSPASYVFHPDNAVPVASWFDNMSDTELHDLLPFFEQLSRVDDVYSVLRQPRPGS

[2] = luciferase reporter signal suppression in cells – H4 neuroglioma cells, luminescence, dose response (AID 1990); format: functional, cell-based
[3] = system: Streptococcus sp. 'group A'; experiment: Streptococcus pyogenes SK(-)GAS viability under kanamycin – luminescence, BacTiterGlo, confirmation, counter-screen for streptokinase expression inhibitor project, dose response (AID 1900); format: functional, organism-based
[4] = Luminescence Cell-Based Dose Response HTS to Identify Inhibitors of 5'UTR Stem-Loop Driven Prion Protein mRNA Translation in H4 Neuroglioblastoma Cells. [Related pubchem assays: 1827 (Project Summary), 1813 (Primary HTS)]; format: functional
[5] = alpha-synuclein stem-loop luciferase translation blockers – H4 neuroglioma cells, luminescence, confirmation (AID 1988); format: functional, cell-based
Streptokinase A = target: T2, Streptokinase A (Streptococcus pyogenes serotype M1, UniProt P10520); experiment: viability-normalized secreted streptokinase activity reduction – plasminogen activation absorbance, OD405, dose response (AID 1914); format: functional, Streptococcus pyogenes M1 GAS;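 further: secreted streptokinase activity via plasminogen activation per viability signal from cell pellet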
T2 sequence (P10520 whole entry): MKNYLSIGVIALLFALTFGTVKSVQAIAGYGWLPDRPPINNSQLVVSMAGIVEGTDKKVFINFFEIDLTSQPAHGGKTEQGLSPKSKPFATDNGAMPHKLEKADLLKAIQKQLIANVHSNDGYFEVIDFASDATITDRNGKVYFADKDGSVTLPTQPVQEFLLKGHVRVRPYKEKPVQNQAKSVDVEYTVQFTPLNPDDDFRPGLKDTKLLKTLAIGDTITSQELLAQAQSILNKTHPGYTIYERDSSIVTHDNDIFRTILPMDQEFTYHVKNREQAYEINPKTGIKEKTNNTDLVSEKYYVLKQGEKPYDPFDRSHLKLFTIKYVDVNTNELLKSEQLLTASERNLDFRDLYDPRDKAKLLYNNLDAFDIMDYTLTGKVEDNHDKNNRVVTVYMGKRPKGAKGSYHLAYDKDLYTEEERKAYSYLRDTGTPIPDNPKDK

Streptococcus = experiment: GAS UMAA2166 growth inhibition – luminescence, BacTiterGlo, counter-screen for streptokinase expression inhibitor project, dose response (AID 1915); format: functional, organism-based;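 further: potency for reduction of bacterial viability or growth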
[6] = target: T3, Heat shock factor protein 1 (Mus musculus, UniProt P38532); experiment: enhancement of HSF1-driven luciferase signal – cell-based, NIH3T3, luminescence, dose retest, confirmation (AID 435004); format: functional;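 further: stress induced by proteasome inhibitor MG132 added 30 min after compound; luciferase reporter driven by HSF1 response element in NIH3T3 cells; actives raise luminescence as potentiators of the MG132 stress response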
T3 sequence (P38532 whole entry): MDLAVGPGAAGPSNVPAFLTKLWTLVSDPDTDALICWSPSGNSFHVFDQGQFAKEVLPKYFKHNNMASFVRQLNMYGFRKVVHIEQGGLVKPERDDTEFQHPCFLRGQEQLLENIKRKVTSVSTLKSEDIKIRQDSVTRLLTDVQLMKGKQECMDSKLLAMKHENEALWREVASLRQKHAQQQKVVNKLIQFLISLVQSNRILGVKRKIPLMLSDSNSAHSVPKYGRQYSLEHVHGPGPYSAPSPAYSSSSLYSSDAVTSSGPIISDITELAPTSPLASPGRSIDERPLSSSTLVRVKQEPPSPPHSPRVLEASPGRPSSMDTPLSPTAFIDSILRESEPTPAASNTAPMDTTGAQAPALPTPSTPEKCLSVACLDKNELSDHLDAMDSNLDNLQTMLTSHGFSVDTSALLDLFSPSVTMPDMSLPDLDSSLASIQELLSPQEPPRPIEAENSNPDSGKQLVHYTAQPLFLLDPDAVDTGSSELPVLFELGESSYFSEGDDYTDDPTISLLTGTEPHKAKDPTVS

INS1 = experiment: INS-1E survival protection against cytokine death – cell-based, luminescence, retest, dose response (AID 449756); format: functional; settings: Rattus norvegicus;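 further: cell death triggered by IL-1 beta plus TNF-alpha plus IFN-gamma mixture; protective hits raise ATP signal compared with cytokine alone wells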
[7] = microbe, parasite or virus in culture; format: functional; settings: Mycobacterium tuberculosis
[8] = Trypanosoma cruzi growth suppression in host cells – NIH3T3 host cells, beta-gal luminescence, confirmation (AID 2044); format: functional, cell-based;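 further: intracellular parasites grown in NIH/3T3 mouse fibroblasts as host cells; luminescent beta-galactosidase reporter signal from transgenic T. cruzi replicating inside host cells; inhibitors lower the luminescence signal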
[9] = NIH3T3 cell viability loss – ATP luminescence, mouse fibroblasts, counter-screen, dose response (AID 2010); format: functional, cell-based;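 further: cells exposed to compound for about 90 hours before reading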
[10] = viability of uninfected HEp-2 cells – cell-based, HTS, cytotoxicity control for RSV inhibitor project, dose response (AID 2410); format: functional; settings: human respiratory syncytial virus
[11] = target: T4, Replicative DNA helicase DnaB (Mycobacterium tuberculosis, UniProt P9WMR3); experiment: DnaB intein splicing inhibitors, dose response, biochemical, cell-free fluorescence (AID 449749); format: functional
T4 sequence (P9WMR3 whole entry): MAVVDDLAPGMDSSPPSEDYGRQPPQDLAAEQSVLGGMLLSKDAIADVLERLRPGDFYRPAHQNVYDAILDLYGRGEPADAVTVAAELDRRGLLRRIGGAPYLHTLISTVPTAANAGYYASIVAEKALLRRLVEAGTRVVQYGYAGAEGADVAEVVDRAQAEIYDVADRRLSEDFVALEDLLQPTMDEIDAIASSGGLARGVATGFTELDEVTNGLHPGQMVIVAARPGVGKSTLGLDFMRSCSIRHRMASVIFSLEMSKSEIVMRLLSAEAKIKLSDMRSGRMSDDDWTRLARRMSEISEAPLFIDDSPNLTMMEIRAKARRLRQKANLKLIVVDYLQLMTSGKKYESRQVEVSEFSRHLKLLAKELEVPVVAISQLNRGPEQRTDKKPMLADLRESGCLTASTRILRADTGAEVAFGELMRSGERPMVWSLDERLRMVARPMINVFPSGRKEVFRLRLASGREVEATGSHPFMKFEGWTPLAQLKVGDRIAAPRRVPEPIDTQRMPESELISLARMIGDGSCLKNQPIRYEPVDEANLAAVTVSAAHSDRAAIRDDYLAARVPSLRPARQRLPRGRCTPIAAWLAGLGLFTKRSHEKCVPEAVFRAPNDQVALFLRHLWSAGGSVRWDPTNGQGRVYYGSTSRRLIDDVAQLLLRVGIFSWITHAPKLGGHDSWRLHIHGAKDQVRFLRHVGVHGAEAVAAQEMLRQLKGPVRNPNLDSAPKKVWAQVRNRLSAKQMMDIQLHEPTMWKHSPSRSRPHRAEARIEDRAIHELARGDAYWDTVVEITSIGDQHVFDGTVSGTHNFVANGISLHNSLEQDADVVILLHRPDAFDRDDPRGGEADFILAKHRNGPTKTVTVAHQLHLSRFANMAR

Protein RecA = target: T5, Protein RecA (Mycobacterium tuberculosis, UniProt P9WHJ3); experiment: Fluorescence Cell-Free Homogeneous Dose Retest to Identify Inhibitors of RecA-Intein Splicing Activity. [Related pubchem assays (depositor defined):AID2097, AID2223, AID489010, AID492950]; format: functional
T5 sequence (P9WHJ3 whole entry): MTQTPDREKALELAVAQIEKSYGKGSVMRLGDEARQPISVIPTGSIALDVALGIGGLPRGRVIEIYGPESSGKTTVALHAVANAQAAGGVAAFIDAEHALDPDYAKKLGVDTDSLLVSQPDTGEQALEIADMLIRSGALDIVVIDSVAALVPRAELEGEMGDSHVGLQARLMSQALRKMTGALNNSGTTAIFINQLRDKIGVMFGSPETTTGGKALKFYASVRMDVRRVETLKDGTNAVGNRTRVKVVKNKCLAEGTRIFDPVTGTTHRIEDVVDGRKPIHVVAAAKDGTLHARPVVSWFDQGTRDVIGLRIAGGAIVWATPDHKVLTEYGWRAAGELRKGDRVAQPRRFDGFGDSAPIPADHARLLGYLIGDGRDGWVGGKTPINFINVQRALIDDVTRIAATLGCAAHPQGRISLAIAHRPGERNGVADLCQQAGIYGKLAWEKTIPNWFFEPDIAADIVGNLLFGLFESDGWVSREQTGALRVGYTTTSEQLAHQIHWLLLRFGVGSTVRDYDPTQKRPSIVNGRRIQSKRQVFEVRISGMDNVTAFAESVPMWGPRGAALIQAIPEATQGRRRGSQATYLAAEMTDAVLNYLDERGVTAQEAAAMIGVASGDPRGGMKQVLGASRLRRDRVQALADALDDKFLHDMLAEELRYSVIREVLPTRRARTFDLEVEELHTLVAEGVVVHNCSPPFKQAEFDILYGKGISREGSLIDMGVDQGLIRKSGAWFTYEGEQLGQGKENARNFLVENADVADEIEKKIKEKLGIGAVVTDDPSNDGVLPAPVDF

[12] = Luminescence Cell-Based Dose Retest to Confirm Inhibitors of Cancer Stem Cells. [Related pubchem assays (depositor defined):AID2717, AID2721]; format: functional; settings: Homo sapiens
[13] = reduction of Shn3 3'UTR-driven luciferase in osteoblasts – cell-based, Clone20 osteoblasts, firefly luciferase, cherry-picked, dose response (AID 624132); format: functional;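 further: firefly luciferase luminescence from reporter carrying the Shn3 3'UTR in osteoblasts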
[14] = Luminescence Cell-Based Dose Confirmation HTS to Identify Activators of 5'UTR Stem-Loop Driven Alpha-Synuclein mRNA Translation in H4 Neuroglioblastoma Cells. [Related pubchem assays: 1829 (Project Summary), 1814 (Primary HTS)]; format: functional
[15] = Luminescence Cell-Based Dose Response HTS to Identify Activators of Luciferase Translation or Activity in H4 […] Cells. [Related pubchem assays: 1829 (Project Summary), 1814 (Primary HTS)]; format: functional
H4 = experiment: Luminescence Cell-Based Dose Response HTS to Identify Activators of 5'UTR Stem-Loop Driven Prion Protein mRNA Translation in H4 Neuroglioblastoma Cells. [Related pubchem assays: 1829 (Project Summary), 1814 (Primary HTS)]; format: functional; settings: Homo sapiens

## CN(C)S(=O)(=O)c1cccc(NC(=O)COC(=O)/C=C/c2ccco2)c1
[1]
  IC50: 21.1 µM (active)

## NCCCn1c(C(=O)c2cc(Cl)c(N)c(Cl)c2)c2ccc([N+](=O)[O-])cc2[n+]1[O-]
[2]
  EC50: 5.24 µM (active)
[3]
  EC50: 2.8 µM (active)
[4]
  EC50: > 120 µM (not active)
[5]
  EC50: 2.06 µM (active)
Streptokinase A
  EC50: > 150 µM (not active)
Streptococcus
  EC50: 5.08 µM (active)
[6]
  EC50: 46.8 µM (active)
INS1
  AC50: 4.16 µM (active)

## Cc1c(Cl)c(C(F)F)nn1CC(=O)NC1C(=O)N2C(C(=O)O)=C(CSc3nnnn3C)CSC12 (stereo not given)
[3]
  EC50: < 0.06 µM (active)
Streptococcus
  EC50: 0.106 µM (active)
[1]
  IC50: 6.48 µM (active)

## Nc1ccc(-c2cn3cccnc3n2)cc1
[3]
  EC50: > 150 µM (not active)
Streptokinase A
  EC50: > 150 µM (not active)
Streptococcus
  EC50: > 150 µM (not active)

## Fc1cccc2sc(Nc3nc4cc5c(cc4s3)OCO5)nc12
[3]
  EC50: > 150 µM (not active)
Streptokinase A
  EC50: > 150 µM (not active)
[7]
  CC50: > 40 µM (active)
Streptococcus
  EC50: > 150 µM (not active)

## CC(C)(C)c1ccc(S(=O)(=O)N2CCC(c3nc4cc(Cl)ccc4[nH]3)CC2)cc1
[3]
  EC50: 5.2 µM (active)
Streptokinase A
  EC50: 4.13 µM (active)
[8]
  EC50: 2.97 µM (active)
[9]
  EC50: > 60 µM (not active)
Streptococcus
  EC50: 45.8 µM (active)

## Oc1cccc(Nc2nc(-c3ccccc3Cl)nc3ccccc23)c1
[10]
  CC50: 27.1 µM (active)
[11]
  AC50: 138 µM (active)
Protein RecA
  EC50: > 380 µM (inactive)

## O=C(CSc1nnc(-c2ccc(S(=O)(=O)N3CCCC3)cc2)o1)NCc1ccco1
[1]
  IC50: 16.3 µM (active)

## COc1ccc2c(c1)[N+](C)(C)C(C)(C)C=C2C
[1]
  IC50: 3.14 µM (active)

## FC(F)(F)c1ccc(C2[C@H]3CN(Cc4cccnc4)[C@H](c4ccccc4)C34CC2(c2cccnc2)C4)cc1 (stereo not given in full)
[3]
  EC50: 2.85 µM (active)
Streptokinase A
  EC50: 6.65 µM (active)
Streptococcus
  EC50: 12 µM (active)
[12]
  AC50: 3.07 µM (active)
[11]
  AC50: 3.46 µM (active)
Protein RecA
  EC50: 24.1 µM (active)

## CCCCN1CC(COCc2ccccc2)Oc2cccc(Oc3cc(C)c(C)c(C)c3)c2S1(=O)=O (stereo not given)
[13]
  AC50: 9.16 µM (active)

## O=C(Cn1nnc(-c2ccc(NC(=O)c3ccccc3F)cc2)n1)NCc1ccc(F)cc1
[1]
  IC50: 4.75 µM (active)

## Cc1csc(=O)n1CC(=O)OCC(=O)c1c(N)n(C)c(=O)n(C)c1=O
[13]
  AC50: 27.1 µM (active)

## O=C(N/N=C/c1ccc(Cl)cc1)c1ccc2c(c1)OCO2
[14]
  EC50: > 120 µM (not active)
[15]
  EC50: 1.87 µM (active)
H4
  EC50: 2.44 µM (active)
[1]
  IC50: 6.93 µM (active)

## C/C(N)=C(/C#N)C(=O)CSc1nc2scc(-c3ccccc3)c2c(=O)n1C
[3]
  EC50: 1.8 µM (active)
Streptokinase A
  EC50: > 150 µM (not active)
Streptococcus
  EC50: 11.9 µM (active)
